Laboratory results reported in ChEMBL document CHEMBL1137835, “2-(Anilino)imidazolines and 2-(benzyl)imidazoline derivatives as h5-HT1D serotonin receptor ligands” (Bioorg Med Chem Lett, 2004).

Tests used:
Cavia porcellus [1] = assay: Compound was tested for serotonergic activity on […] induced by electrical stimulation in guinea-pigs (3-7 nM/kg)
[2] = target: T1, 5-hydroxytryptamine receptor 1B (Homo sapiens, UniProt P28222); assay: Binding affinity towards human 5-hydroxytryptamine 1B receptor
T1 sequence (P28222 whole entry): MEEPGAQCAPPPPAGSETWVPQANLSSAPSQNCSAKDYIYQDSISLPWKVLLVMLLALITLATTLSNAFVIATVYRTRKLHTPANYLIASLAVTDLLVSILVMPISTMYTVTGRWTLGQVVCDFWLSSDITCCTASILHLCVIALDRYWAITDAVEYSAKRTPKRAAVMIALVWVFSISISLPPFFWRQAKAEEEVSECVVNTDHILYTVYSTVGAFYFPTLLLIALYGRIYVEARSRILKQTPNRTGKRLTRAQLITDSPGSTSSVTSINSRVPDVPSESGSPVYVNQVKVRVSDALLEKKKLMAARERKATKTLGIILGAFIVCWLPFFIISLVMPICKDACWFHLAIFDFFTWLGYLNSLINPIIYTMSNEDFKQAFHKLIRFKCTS

[3] = target: T2, 5-hydroxytryptamine receptor 1D (Homo sapiens, UniProt P28221); assay: Binding affinity towards human 5-hydroxytryptamine 1D receptor
T2 sequence (P28221 whole entry): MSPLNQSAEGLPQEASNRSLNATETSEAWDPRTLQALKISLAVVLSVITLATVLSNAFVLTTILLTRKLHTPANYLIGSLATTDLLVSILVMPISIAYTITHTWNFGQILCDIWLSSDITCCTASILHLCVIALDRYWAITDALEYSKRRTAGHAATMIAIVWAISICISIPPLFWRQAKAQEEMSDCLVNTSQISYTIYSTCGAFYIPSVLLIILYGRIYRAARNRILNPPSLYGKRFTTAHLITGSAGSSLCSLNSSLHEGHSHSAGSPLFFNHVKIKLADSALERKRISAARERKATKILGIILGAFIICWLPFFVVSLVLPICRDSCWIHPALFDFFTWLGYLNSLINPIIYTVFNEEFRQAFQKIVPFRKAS

[4] = Total plasma clearance in rat at a dose of 5 mg/kg; type: ADME, organism-based; parameters: dose 5 mg/kg; conditions: read-out: Total clearance
Cavia porcellus [5] = species on record: Cavia porcellus; assay: Compound was tested for serotonergic activity on […] induced by electrical stimulation in guinea-pigs
[6] = Volume of distribution of compound in rat body tissue at a dose of 5 mg/kg; type: ADME, organism-based; parameters: dose 5 mg/kg; conditions: in vivo
[7] = Oral bioavailability in rat (dose 5 mg/kg); type: ADME, organism-based; conditions: in vivo
[8] = Plasma half-life in rat at a dose of 5 mg/kg; type: ADME, organism-based; parameters: dose 5 mg/kg
[9] = target: Serotonin 1 receptors; 5-HT1B & 5-HT1D (Homo sapiens) (UniProt P28222+P28221); assay: Ratio of 5-hydroxytryptamine 1B receptor to that of 5-hydroxytryptamine 1D receptor was determined; type: protein assay
[10] = target: T1, 5-hydroxytryptamine receptor 1B; conditions: 1000 nM
Description: Percent displacement of radioligand from human 5-hydroxytryptamine 1B receptor at 1000 nM

[11] = target: T2, 5-hydroxytryptamine receptor 1D; conditions: 1000 nM
Description: Percent displacement of radioligand from human 5-hydroxytryptamine 1D receptor at 1000 nM

Oryctolagus cuniculus = species on record: Oryctolagus cuniculus; assay: Agonistic activity tested in isolated rabbit saphenous vein; type: functional
[12] = target: T3, Muscarinic acetylcholine receptor M4 (Homo sapiens) (UniProt P08173); assay: Inhibitory activity against human Muscarinic acetylcholine receptor M4 at 1000 nM
T3 sequence (whole entry): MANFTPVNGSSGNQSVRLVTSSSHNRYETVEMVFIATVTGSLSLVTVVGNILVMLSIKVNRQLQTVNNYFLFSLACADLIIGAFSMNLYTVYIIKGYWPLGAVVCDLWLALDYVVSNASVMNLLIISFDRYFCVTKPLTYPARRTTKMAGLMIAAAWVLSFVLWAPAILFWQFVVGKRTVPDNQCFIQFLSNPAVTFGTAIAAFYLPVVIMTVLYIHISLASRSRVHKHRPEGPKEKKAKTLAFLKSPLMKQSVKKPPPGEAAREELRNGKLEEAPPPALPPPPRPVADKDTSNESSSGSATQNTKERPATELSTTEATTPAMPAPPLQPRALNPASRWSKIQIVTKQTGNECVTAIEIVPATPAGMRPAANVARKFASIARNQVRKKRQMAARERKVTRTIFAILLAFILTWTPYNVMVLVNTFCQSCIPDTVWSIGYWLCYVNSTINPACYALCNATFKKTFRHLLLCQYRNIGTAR

[13] = target: T4, Alpha-1A adrenergic receptor (Homo sapiens, UniProt P35348); assay: Binding affinity towards human Alpha-1 adrenergic receptor
T4 sequence (P35348 whole entry): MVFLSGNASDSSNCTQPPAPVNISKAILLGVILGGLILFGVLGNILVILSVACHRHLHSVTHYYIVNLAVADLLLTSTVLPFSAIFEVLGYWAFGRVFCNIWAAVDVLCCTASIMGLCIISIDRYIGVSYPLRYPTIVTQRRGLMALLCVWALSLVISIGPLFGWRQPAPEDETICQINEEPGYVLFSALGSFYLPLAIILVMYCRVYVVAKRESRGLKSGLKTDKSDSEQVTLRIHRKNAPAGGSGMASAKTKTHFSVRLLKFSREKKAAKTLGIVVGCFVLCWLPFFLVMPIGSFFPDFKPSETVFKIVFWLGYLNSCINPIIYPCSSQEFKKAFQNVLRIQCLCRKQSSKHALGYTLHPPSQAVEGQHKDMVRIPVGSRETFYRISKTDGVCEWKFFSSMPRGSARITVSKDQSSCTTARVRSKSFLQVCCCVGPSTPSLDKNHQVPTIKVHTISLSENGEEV

Compound	Ki [2]	Ki [3]	Selectivity [9]	also measured
CNS(=O)(=O)Cc1ccc2[nH]cc(CCN(C)C)c2c1				IC50 (Cavia porcellus [1]): 7 nM/kg
Cc1cc([N+](=O)[O-])cc(C)c1N=C1NCCN1	10200 nM	330 nM		
Cc1cc(C(C)(C)C)cc(C)c1CC1=NCCN1C				clearance [4]: 66.4 mL/min/kg; IC50 (Cavia porcellus [5]): 10 nM/kg; Vd [6]: 3.97 L/kg; bioavailability [7]: 42.1%; half-life [8]: 0.95 h
Clc1cc(I)cc(Cl)c1N=C1NCCN1 [PI-CLONIDINE]	1980 nM	50 nM	40	
Clc1cccc(Cl)c1NC1=NCCN1				inhibition [10]: < 5%; inhibition [11]: < 5%
Cc1cc(C(C)(C)C)cc(C)c1NC1=NCCN1			40	
Cc1cc(Br)cc(C)c1N=C1NCCN1	1430 nM	54 nM	26	
Cc1cc(C(C)(C)C)cc(C)c1CC1=NCCN1Cc1ccccc1				clearance [4]: 57.6 mL/min/kg; EC50 (Oryctolagus cuniculus): 780 nM; IC50 (Cavia porcellus [5]): 0.4 nM/kg; Vd [6]: 7.28 L/kg; bioavailability [7]: 9.3%; inhibition [12]: 68%; half-life [8]: 1.64 h
CC(C)(C)c1ccc(C2=NCCN2)cc1		105 nM		Ki [13]: 91 nM
Cc1cc(C(C)(C)C)cc(C)c1N=C1NCCN1	12 nM	0.3 nM		
Cc1cccc(C)c1N=C1NCCN1	> 30000 nM	2080 nM	> 10	
Cc1cccc(C)c1CC1=NCCN1			> 4	
Cc1cc(C(C)(C)C)cc(C)c1CC1=NCCCN1	4430 nM	33 nM		clearance [4]: 28.9 mL/min/kg; IC50 (Cavia porcellus [5]): 5 nM/kg; Vd [6]: 1.24 L/kg; bioavailability [7]: 9.9%; half-life [8]: 1.03 h
c1ccc(NC2=NCCN2)cc1	> 30000 nM	> 30000 nM		
Cc1cc([N+](=O)[O-])cc(C)c1NC1=NCCN1			30	
Cc1cc(Br)cc(C)c1CC1=NCCN1			20	
Cc1cc(C(C)(C)C)cc(C)c1CC1=NCCN1 [XYLOMETAZOLINE]	13 nM			Ki [13]: 91 nM
